Common to all, as to assay type: cell-based, human
In assay [1] the test system is AP-1. Briefly: ChIP assay of AP-1 binding to the α9-nAChR promoter in MCF-7 cells. As to conditions: EGCG 10 μM 24 h pretreatment, Nic 10 μM. Here is the method:
Chromatin immunoprecipitation (ChIP) assays of cultured cells were performed as described previously (Chen, C. S., Lee, C. H., Hsieh, C. D., Ho, C. T. et al., Breast Cancer Res. Treat. 2010; Shih, Y. L., Liu, H. C., Chen, C. S., Hsu, C. H. et al., J. Agric. Food Chem. 2010, 58, 235-241). Briefly, after various regimens of Nic treatment, the cells were fixed with a final concentration of 1% formaldehyde directly added to the cell culture medium at 25° C. for 15 min. The crosslinking reaction was terminated with 0.125 M glycine for 5 min, and the cells were collected into a new Eppendorf tube. The cell lysate was sonicated three times with 10 s bursts to yield input DNA enriched for fragments around 1000 bp in size. A c-Jun (AP-1) antibody (Santa Cruz Biotechnology) was used for the immunoprecipitation reactions. Primers, which detect the a9-nAChR promoter regions, amplified a region from −960 to −1 for 32 cycles (forward: 5′-ATGCAATG CAAGCCTGAGCT-3′ (SEQ ID NO:2) and reverse: 5′-TATA-[…]-3′ (SEQ ID NO:3)). The PCR products were then separated and analyzed by agarose gel electrophoresis.

The subject of assay [2] is α9-nAChR promoter. Briefly: α9-nAChR promoter luciferase activity assay in MCF-7 cells. As to conditions: EGCG 10 μM 24 h pretreatment, then Nic or E2 24 h. How it is done:
All α9-nAChR promoter—luciferase gene fusions were made in the pGL3-Basic vector (Promega, Madison, Wis., USA) by introducing the appropriate α9-nAChR promoter fragments into the polylinker upstream of the luciferase gene. These fragments were generated with restriction enzymes and cloned directly into pGL3-Basic or subcloned first in pBluescript and then transferred to pGL3-Basic. Deletion analysis of the most promoter-proximal region was performed by generating either appropriate restriction enzyme fragments or PCR fragments with suitable sense oligonucleotides and an antisense primer (5′-[…]-3′ (SEQ ID NO:1)) that anneals to the pGL3-Basic vector downstream of the site of transcription initiation.
MCF-7 cells were plated in 6-well plates. Cells were transiently cotransfected the next day with 1.5 μg of PGL3-Basic plasmid containing the full-length α9-nAChR promoter and 0.1 μg of the RLTK plasmid (Promega) using an MP-100 microporator (Digital Bio), according to the manufacturer's instructions. After incubation for 24 h, the medium was changed to culture medium containing 10% FBS or 0.1% FB S with or without Nic. Cells were lysed 24 h later with 1× Reporter Lysis Buffer (Promega) and stored frozen at −20° C. overnight. Luciferase activity was determined by testing 50 μL of the cell lysate and 50 μL of the Luciferase Assay Reagent (Promega) using a HIDEX Chameleon Microplate Reader. Relative luciferase units were normalized to renilla luciferase from the same cell lysates. Each luciferase assay experiment was performed three times.

Assay [3] relates to MCF-7 cells. As to the kind of experiment: Soft agar cloning assay (colony formation) of MCF-7 cells. To be noted: EGCG 10 μM, Nic 10 μM. How it is done: The base layer consisted of 0.9% low gelling point SeaPlaque agarose (Sigma, St. Louis, Mo., USA) in culture medium (Shih, Y. L., Liu, H. C., Chen, C. S., Hsu, C. H. et al., J. Agric. Food Chem. 2010, 58, 235-241). Soft agar, consisting of 0.4% SeaPlaque agarose in culture medium, was mixed with 1×10^4 MCF-7 cells and plated on top of the base layer in 60-mm diameter culture dishes. Soft agar cultures were maintained at 37° C. and counted for the appearance of colonies with a Leica DMI 4000B Microscope Imaging System (Leica Microsystems, Wetzlar, Germany).

The source of these data is patent publication US20120208873A1, “TEA POLYPHENOLS PRODUCTS FOR CEASING SMOKING AND TREATING AND/OR PREVENTING NICOTINE OR NICOTINE-DERIVED COMPOUNDS OR ESTROGEN INDUCED BREAST CANCER” (priority 2011, published 2012).

Turning to `O=C(O[C@@H]1Cc2c(O)cc(O)cc2O[C@@H]1c1cc(O)c(O)c(O)c1)c1cc(O)c(O)c(O)c1` [EGCG, (−)-epigallocatechin-3-gallate], the “Nic-induced AP-1 binding to the α9-nAChR promoter” value in assay [1] was “attenuated”. Besides, the “Nic- and E2-induced α9-nAChR promoter luciferase activity” value in assay [2] is recorded as “significantly reduces”. For the same compound, the “colony formation in α9-nAChR (Si) cells compared with (Sc) cells” value in assay [3] is on record as “profoundly inhibited”. Moreover, the “formation of transformed colonies compared with Nic-treated cells” value in assay [3] (MCF-7) is given as “significantly inhibits”.
